# Several values for one entry are separate records, joined by “and”; a condition that tells them apart may be missing. Equal values may be shown once. Read-outs that look alike come from different tables or passages of the source.
# Key:
# [1] = tested on: reticulo-endothelial system; assay: Phagocytic activity of the reticulo-endothelial system, carbon clearance (HALPERN); format: in vivo, rabbit; details: 1 g/kg
# From the text: That technique is based on the study of the kinetics of the disappearance in the blood of particles of carbon injected into the vein. The kinetics of disappearance follow the equation [formula] in which formula C1 is the concentration of carbon in the blood at time T1 and C2 is the concentration of carbon in the blood at time T2, K being a constant. The constant K, called phagocytic index, represents the phagocytic activity of the cells of the reticule-endothelial system under the experimental conditions. For the tests, the technique and carbon suspension described by […]. Physiol. of Paris, Vol. 50, p. […] The study was done on rabbits of the same stock, male or female, or an average weight of about 2.5 kg, devided into four batches of four animals each. The first batch was used as controls and received, by slow intravenous injection, 10 ml of a 0.8% solution of sodium chloride ten minutes before the injection of 4 mg of carbon per 100 g of animal. […] In all the tests, a total volume of 10 ml was injected with a fairly closely related injection speed (less than five minutes).
# [2] = tested on: oxygen consumption of the rat; assay: Oxygen consumption in metabolism apparatus for small animals (BARGETON and […]); format: in vivo
# From the text: The results obtained are given as percentage of the control tests in the following table I.
# blood pressure = details: for blood pressure after first injection: Clinical Example 12, 2 g
# From the text: A person who had suffered from high blood pressure for a long time underwent an urgent operation for the removal of an intra-cerebral hematoma. […] A person who had suffered from high blood pressure and cardiac arrhythmias, was undergoing an operation for the removal of a bilateral sub-dural hematoma. […] A person of generally good health but who had undergone surgery in the previous month for the excision of a cancer of the cecum, was undergoing an operation for a cerebral metastasis. […] A perfusion of two units of blood (800 ml ) was effected to compensate for the moderate blood losses.
# electro-cardiograms = details: in vivo
# [3] = pH of a solution in distilled water; format: physicochemical
# [4] = tested on: isolated segment of aorta; assay: Isolated segment of aorta, tonus
# Rabbit ileum = assay: Isolated rabbit ileum, tonus
# Protocol: Fragments of the ileum were suspended in a 75 ml isolated organ tank containing Tyrode's solution maintained at 37° C. by a thermostat and oxygenated by bubbling pure oxygen at a constant rate of flow. The movement of the organ were recorded by means of a lever on a cylinder rotating at a known constant speed.
# [5] = tested on: free fatty acids in the plasma; assay: Non-esterified fatty acids in the plasma (DOLE); format: in vivo, rabbit; details: 1 g/kg
# Protocol: Doses of 1 and 2 mg of adrenalin were introduced subcutaneously into rabbits weighing 2.5 to 3.5 kg.
# FIGS. 8, 9 and 10 show the variation in the percentage of non-esterified fatty acids in the plasma as a function of the time. […]
structure (smiles),measurement,setting,value
O=C(CO)CO [dihydroxyacetone],speed of purification of the carbon particles with respect to control animals,"[1]; 10 minutes before lactic acid 0.9 g/kg, FIG. 6",considerably increases
same,speed at which the carbon particles disappear with respect to control animals,[1]; FIG. 5,practically no change
same,mean decrease (oxygen consumption),[2]; 2 g / kilogram,6.5
same,Difference between the control measurement and the measurement after injection (oxygen consumption),"[2]; 2 g/kg, individual tests No. 1 to 12",0 percentage of the control test and -18 percentage of the control test and -16 percentage of the control test and -13 percentage of the control test and -11 percentage of the control test
same,mean decrease (oxygen consumption),[2]; 4 g / kilogram,4.1
same,Difference between the control measurement and the measurement after injection (oxygen consumption),"[2]; 4 g/kg, individual tests No. 1 to 8",-13 percentage of the control test and -10 percentage of the control test
same,oxygen consumption of the rat,[2]; overall result in words,decreased the oxygen consumption of the rat
same,blood pressure after first injection,blood pressure; after two hours,95 mm Hg
same,blood pressure after first injection,"blood pressure; one hour, from 90",130 mm Hg
same,blood pressure after second injection,"blood pressure; Clinical Example 12, second 2 g in 10% glucose solution, remained",130 mm Hg
same,blood pressure after injection,"blood pressure; Clinical Example 13, 2 g over 15 minutes, from 60",100 mm Hg
same,blood pressure after injection,"blood pressure; Clinical Example 14, 2 g, 45 minutes later",170 mm Hg
same,blood pressure after injection,"blood pressure; Clinical Example 14, 2 g, within 20 minutes, from 70",130 mm Hg
same,blood pressure after perfusion,"blood pressure; Clinical Example 15, 2 g, within 15 minutes, from 60",110 mm Hg
same,"blood pressure after injection, stabilized","blood pressure; Clinical Example 16, 3 g",100 mm Hg
same,"blood pressure after injection, initial rise","blood pressure; Clinical Example 16, 3 g, from 80",120 mm Hg
same,post-operative complications,"blood pressure; human, in vivo",no post-operative complications
same,undesirable side effects,"blood pressure; human, in vivo",without undesirable side effects
same,change in the electro-cardiograms,electro-cardiograms,no change in the electro-cardiograms within standard deviations
same,pH of a solution in distilled water,[3],4
same,tonus of an isolated segment of aorta,[4],does not act on the tonus
same,tonus of ileum,Rabbit ileum; 50 mg to 75 ml of survival medium,only a slight and transient tonus increase
same,tonus of ileum,Rabbit ileum; dose printed as 18,a momentary hypertonia
same,effect of potassium chloride in the presence of dihydroxyacetone,Rabbit ileum; rabbit ileum,decreases only the contractile amplitude without affecting the tonus
same,effect on hypertonia due to acetylcholine,"Rabbit ileum; rabbit ileum, acetylcholine",did not change
same,effect on hypertonia caused by adrenalin,"Rabbit ileum; rabbit ileum, adrenalin",clearly decreased
same,effect on action of nicotine,"Rabbit ileum; rabbit ileum, nicotine",clearly diminished
same,effect on hypertonic activity of serotonin,"Rabbit ileum; rabbit ileum, serotonin",The same observation was made with serotonin
same,effect on hypertonic action of sodium lactate,"Rabbit ileum; rabbit ileum, sodium lactate",influenced to only a small degree
same,effect on hypertonic activity of reducing agents,Rabbit ileum; vitamin C or amino-ethyl isothiouronium,disappeared
same,percentages of non-esterified fatty acids in the plasma after adrenalin,"[5]; after 1 mg of adrenalin, fed animals, FIG. 10",general tendency toward increased percentages
same,"percentage of non-esterified fatty acids in the plasma, fasted animals","[5]; animals without food for 24 hours, FIG. 11",return to normal

# — patent US4049795A, “Treatment of hemorrhagic shock” (priority 1974, dated 1977)
